{
  "source": "patent US9562914B2",
  "about": "“Microfluidic device for real-time clinical monitoring and quantitative assessment of whole blood coagulation” (President and Fellows of Harvard College, priority 2013, dated 2017)",
  "test_system": "whole human blood",
  "assay": "whole blood clotting time in microfluidic coagulation device (infusion or pressure pump mode)",
  "assay_type": "cell-based",
  "conditions": "microchannels coated with human collagen I at 100 μg/ml; device of FIG. 13A; uncoated PDMS 15-60 minutes",
  "description": "As discussed below, in the test configuration, 2-5 ml of human whole blood was pumped through an infusion or pressure pump followed by an inline pressure sensor that connected to ports 120a, 120b of the microfluidic device 100 via appropriate medical grade tubing (e.g., 1.6 mm ID). In infusion mode, clot formation leads to an increase in pressure, whereas in constant pressure mode, the flow rate drops with respect to time. […] The characteristic constants of these models indicate clotting times at two stages—when the clot formation is accelerating and when the clot has completely occluded the channel. […] Fluorescence microscopy of fibrinogen and platelets allow real-time monitoring of fibrin formation and platelet aggregation simultaneously.\nIn the testing conducted with the microfluidic device 100 of FIG. 1, fresh human blood stored in a 5 ml syringe (slip-tip Plastipak, BD, Franklin Lakes, N.J.) was pushed via syringe pump (PHD Ultra CP, Harvard Apparatus, Holliston, Mass.) through an inline, disposable pressure sensor (PREPS-N-000, PendoTECH, Princeton, N.J.) followed by the PDMS device within 15 minutes of blood draw. […] In the test setup, the imaging device 130 used was a fluorescence imaging configured Carl Zeiss Axio 3 Observer microscope (10×, NA 0.3 objective), but other imaging devices may be readily used in accord with the present concepts. […]",
  "data": [
    {"substance": "human collagen I: human collagen I coated on the microchannels at a concentration of 100 μg/ml", "values": [
      {"measurement": "clotting time with collagen-coated microchannels", "value": "2 to 20", "unit": "min"}
    ]}
  ]
}
